Test [1] deals with Melanocortin receptor 1 (Xenopus laevis). Nature of the test: Agonistic activity towards Melanocortin 1 receptor in the Xenopus frog skin assay.
In test [2] the test system is Melanocortin receptor 1 (Xenopus laevis). Description: Antagonistic activity towards Melanocortin 1 receptor in Xenopus frog skin using competitive binding in the presence of 500 pM of alpha-melanocyte stimulating hormone.

In ChEMBL document CHEMBL1136811, “Design of novel chimeric melanotropin-deltorphin analogues. Discovery of the first potent human melanocortin 1 receptor antagonist” (J Med Chem, 2003) one finds EC50 and IC50 data, which are given here for 19 molecules.

Structures are written as SMILES. Where only a bound is given, the exact number is not on record here.

The term EC50 denotes the concentration giving half of the maximal effect. Read a low EC50 as a more potent agent.

In test [1], `CC(C)[C@H](NC(=O)[C@@H]1CCC(=O)NCC(=O)N[C@@H](Cc2c[nH]cn2)C(=O)N[C@H](Cc2ccccc2)C(=O)N[C@@H](CCCN=C(N)N)C(=O)N[C@@H](Cc2c[nH]c3ccccc23)C(=O)N1)C(=O)N[C@H](C(=O)NCC(N)=O)C(C)C` returned an EC50 of 510 nM. In addition, the IC50 entry in test [2] was “Not Active”.

On to `CC(C)[C@H](NC(=O)[C@@H]1CCC(=O)NCCCCCC(=O)N[C@@H](Cc2c[nH]cn2)C(=O)N[C@@H](Cc2ccccc2)C(=O)N[C@@H](CCCN=C(N)N)C(=O)N[C@@H](Cc2c[nH]c3ccccc23)C(=O)N1)C(=O)N[C@H](C(=O)NCC(N)=O)C(C)C`, for which, in test [1], the EC50 is more than 10000 nM. In addition, in test [2], the IC50 entry is recorded as “Not Active”.

`CC(C)[C@H](NC(=O)[C@@H]1CCC(=O)NCCCCCC(=O)N[C@@H](Cc2c[nH]cn2)C(=O)N[C@H](Cc2ccccc2)C(=O)N[C@@H](CCCN=C(N)N)C(=O)N[C@@H](Cc2c[nH]c3ccccc23)C(=O)N1)C(=O)N[C@H](C(=O)NCC(N)=O)C(C)C` gave an EC50 in test [1] of 23 nM. For the same molecule, the IC50 entry in test [2] is recorded as “Not Active”. In turn, `CC(C)[C@H](NC(=O)[C@@H]1CCC(=O)NCCCC(=O)N[C@@H](Cc2c[nH]cn2)C(=O)N[C@@H](Cc2ccccc2)C(=O)N[C@@H](CCCN=C(N)N)C(=O)N[C@@H](Cc2c[nH]c3ccccc23)C(=O)N1)C(=O)N[C@H](C(=O)NCC(N)=O)C(C)C` displayed an EC50 in test [1] of 2700 nM. Moreover, in test [2], the IC50 result is reported as “Not Active”. On to `CC(C)[C@H](NC(=O)[C@@H]1CCC(=O)NCCC(=O)N[C@@H](Cc2c[nH]cn2)C(=O)N[C@H](Cc2ccccc2)C(=O)N[C@@H](CCCN=C(N)N)C(=O)N[C@@H](Cc2c[nH]c3ccccc23)C(=O)N1)C(=O)N[C@H](C(=O)NCC(N)=O)C(C)C`, for which, in test [2], the IC50 result is recorded as “Not Active”. With `CC(C)[C@H](NC(=O)[C@@H]1CCC(=O)NCCC(=O)N[C@@H](Cc2cnc[nH]2)C(=O)N[C@H](Cc2ccccc2)C(=O)N[C@@H](CCCNC(=N)N)C(=O)N[C@@H](Cc2c[nH]c3ccccc23)C(=O)N1)C(=O)N[C@H](C(=O)NCC(N)=O)C(C)C`, in test [1], the 50% effective concentration (EC50) turned out to be 31 nM. The same measure, in the same setting: to `CC(C)[C@H](NC(=O)[C@@H]1CCC(=O)NCC(=O)N2CCC[C@H]2C(=O)N[C@H](Cc2ccccc2)C(=O)N[C@@H](CCCN=C(N)N)C(=O)N[C@@H](Cc2c[nH]c3ccccc23)C(=O)N1)C(=O)N[C@H](C(=O)NCC(N)=O)C(C)C` belongs more than 10000 nM. `CC(C)[C@H](NC(=O)[C@@H]1CCC(=O)N[C@@H](Cc2c[nH]cn2)C(=O)N[C@H](Cc2ccc3ccccc3c2)C(=O)N[C@@H](CCCN=C(N)N)C(=O)N[C@@H](Cc2c[nH]c3ccccc23)C(=O)N1)C(=O)N[C@H](C(=O)NCC(N)=O)C(C)C` gave a concentration giving a half-maximal response (EC50) in test [1] of 60 nM. For the same molecule, the IC50 entry in test [2] was “Not Active”. The molecule `CC(C)[C@H](NC(=O)[C@@H]1CCC(=O)NCCC(=O)N[C@@H](Cc2c[nH]cn2)C(=O)N[C@H](Cc2ccc3ccccc3c2)C(=O)N[C@@H](CCCN=C(N)N)C(=O)N[C@@H](Cc2c[nH]c3ccccc23)C(=O)N1)C(=O)N[C@H](C(=O)NCC(N)=O)C(C)C` had an EC50 in test [1] of 2 nM. Moreover, the IC50 entry in test [2] is recorded as “Not Active”.

On to `CC(C)[C@H](NC(=O)[C@@H]1CCC(=O)NCCCC(=O)N[C@@H](Cc2c[nH]cn2)C(=O)N[C@H](Cc2ccccc2)C(=O)N[C@@H](CCCN=C(N)N)C(=O)N[C@@H](Cc2c[nH]c3ccccc23)C(=O)N1)C(=O)N[C@H](C(=O)NCC(N)=O)C(C)C`, for which the concentration giving a half-maximal response (EC50) in test [1] came to 313 nM. Moreover, the IC50 entry in test [2] was “Not Active”. The molecule `CC(C)[C@H](NC(=O)[C@@H]1CCC(=O)N[C@@H](Cc2cnc[nH]2)C(=O)N[C@@H](Cc2ccccc2)C(=O)N[C@@H](CCCNC(=N)N)C(=O)N[C@@H](Cc2c[nH]c3ccccc23)C(=O)N1)C(=O)N[C@H](C(=O)NCC(N)=O)C(C)C` showed an EC50 in test [1] of more than 10000 nM. Consider `CC(C)[C@H](NC(=O)[C@@H]1CCC(=O)NCCCC(=O)N[C@@H](Cc2c[nH]cn2)C(=O)N[C@H](Cc2ccc3ccccc3c2)C(=O)N[C@@H](CCCN=C(N)N)C(=O)N[C@@H](Cc2c[nH]c3ccccc23)C(=O)N1)C(=O)N[C@H](C(=O)NCC(N)=O)C(C)C`, for which the IC50 entry in test [2] is “Not Active”. For `CC(C)[C@H](NC(=O)[C@@H]1CCC(=O)NCCCC(=O)N[C@@H](Cc2cnc[nH]2)C(=O)N[C@H](Cc2ccc3ccccc3c2)C(=O)N[C@@H](CCCNC(=N)N)C(=O)N[C@@H](Cc2c[nH]c3ccccc23)C(=O)N1)C(=O)N[C@H](C(=O)NCC(N)=O)C(C)C`, the EC50 in test [1] turned out to be 23 nM. With `CC(C)[C@H](NC(=O)[C@@H]1CCC(=O)NCC(=O)N[C@@H](Cc2c[nH]cn2)C(=O)N[C@H](Cc2ccc3ccccc3c2)C(=O)N[C@@H](CCCN=C(N)N)C(=O)N[C@@H](Cc2c[nH]c3ccccc23)C(=O)N1)C(=O)N[C@H](C(=O)NCC(N)=O)C(C)C`, in test [1], a half-maximal response (EC50) required 60 nM. In test [2], the IC50 entry is “Not Active”. On to `CC(C)[C@H](NC(=O)[C@@H]1CCC(=O)N2CCC[C@H]2C(=O)N[C@H](Cc2ccc3ccccc3c2)C(=O)N[C@@H](CCCN=C(N)N)C(=O)N[C@@H](Cc2c[nH]c3ccccc23)C(=O)N1)C(=O)N[C@H](C(=O)NCC(N)=O)C(C)C`, for which the EC50 in test [1] is more than 10000 nM.

`CC(C)[C@H](NC(=O)[C@@H]1CCC(=O)NCC(=O)N2CCC[C@H]2C(=O)N[C@H](Cc2ccc3ccccc3c2)C(=O)N[C@@H](CCCN=C(N)N)C(=O)N[C@@H](Cc2c[nH]c3ccccc23)C(=O)N1)C(=O)N[C@H](C(=O)NCC(N)=O)C(C)C` registered an EC50 in test [1] of more than 10000 nM. The same measure, in the same setting: to `CC(C)[C@H](NC(=O)[C@@H]1CCC(=O)N[C@@H](Cc2c[nH]cn2)C(=O)N[C@H](Cc2ccccc2)C(=O)N[C@@H](CCCN=C(N)N)C(=O)N[C@@H](Cc2c[nH]c3ccccc23)C(=O)N1)C(=O)N[C@H](C(=O)NCC(N)=O)C(C)C` belongs 825 nM. In the case of `CC(C)[C@H](NC(=O)[C@@H]1CCC(=O)NCC(=O)N[C@@H](Cc2cnc[nH]2)C(=O)N[C@@H](Cc2ccccc2)C(=O)N[C@@H](CCCNC(=N)N)C(=O)N[C@@H](Cc2c[nH]c3ccccc23)C(=O)N1)C(=O)N[C@H](C(=O)NCC(N)=O)C(C)C`, it took 5200 nM to reach a half-maximal effect in test [1] (EC50). Besides, the IC50 result in test [2] is listed as “Not Active”. As for `CC(C)[C@H](NC(=O)[C@@H]1CCC(=O)NCC(=O)N[C@@H](Cc2cncn2COCc2ccccc2)C(=O)N[C@H](Cc2ccccc2)C(=O)N[C@@H](CCCN=C(N)N)C(=O)N[C@@H](Cc2c[nH]c3ccccc23)C(=O)N1)C(=O)N[C@H](C(=O)NCC(N)=O)C(C)C`, in test [1], the EC50 is more than 10000 nM.
